Results published in paper PMC6930649, “Four New Iridoid Metabolites Have Been Isolated from the Stems of Neonauclea reticulata (Havil.) Merr. with Anti-Inflammatory Activities on LPS-Induced RAW264.7 Cells” (Molecules, 2019).
Values after ≈ are worked out from the molar mass of the structure shown.

How the values were obtained:
[1] = Cell viability assay (MTT) in RAW264.7 cells; type: cell-based; conditions: mouse, RAW264.7 macrophage cells, 6.25-100 μg/mL, LPS 100 ng/mL, mean ± SD of three independent experiments
Procedure: (§1) RAW264.7 the mouse macrophages cell line (Bioresource Collection and Research Center (BCRC) Number: 60001) was obtained from Food Industry Research and Development Institute (Hsinchu, Taiwan). All of the cell lines were cultured in DMEM containing 10% (v:v) fetal bovine serum (FBS), penicillin and streptomycin (100 U/mL), 4 mM L-glutamine (100 U/mL). The cells were cultured in a humidified incubator under 5% CO2 at 37 °C. The RAW264.7 cells (5 × 10^5 cells per mL) were seeded into plates for 24 h before treatment.
(§2) The in-vitro cell viability activity of MeOH extracts, partition fractions and pure compounds were determined by the MTT assay. RAW264.7 cells (5 × 10^4/well) were seeded in 96-well plates and incubated for 24 h. The cells were treated with MeOH extracts and contain partition fractions in various concentrations (0, 62.5, 125, 250, 500 and 1000 μg/mL), compounds and positive control (0, 6.25, 12.5, 25, 50 and 100 μg/mL) in the presence or absence of LPS (100 ng/mL) for 24 h. After 24 h, the medium was replaced with a medium containing 0.5 mg/mL MTT solution and incubated at 37 °C for 4 h. After the end of the MTT reaction, we used 0.04 N HCl /isopropanol solution to dissolve the formazan crystals. The absorbance was measured at 570 nm using a microplate reader (Molecular Devices, LLC.). The cell viability was calculated and compared with the control group.

[2] = system: NO production by LPS stimulated in RAW264.7 cells; test: Inhibition of NO production in LPS-stimulated RAW264.7 macrophages (Griess reagent); type: cell-based, mouse; conditions: LPS-stimulated RAW264.7 cells; for IC50: Mus musculus, read-out: IC50 (inhibition of nitric oxide production)
Procedure: as §1, §2
The supernatant collected from cell culture and mixed with an equal volume of Griess reagent (1% sulphanilamide, 0.1% naphthylethylenediamine dihydrochloride and 5% phosphoric acid) and the absorbance value was measured at 540 nm using an ELISA plate reader.
The IC50 values for NO production were presented as mean values ± SD (standard deviations) of at least three independent experiments. The statistical significance of the differences was evaluated using Student’s t-test using IBM SPSS v.20.0 (SPSS Inc., Chicago, IL, USA). The percentage of NO production and cell viability were compared using variance analysis with GraphPad Prism 7.0 (GraphPad Software Inc., San Diego, CA, USA).

[3] = pure compounds, 6.25-100 μg/mL, 24 h, mean ± SD of three independent experiments

Compound | IC50 [2, 3] [µg/mL] | IC50 fold less than indomethacin (positive control) ([2]; NO inhibition) [fold] | CC50 at 24 h [1] [µg/mL] | IC50 (inhibition of nitric oxide production) [2, 3] [µg/mL]
COC(=O)C1C(O)OC(=O)C2C(C)C(O)CC12 (stereo not drawn) [Compound 1, neonanin C] | > 100 |  | > 100 | 
COC(=O)C1=COC(O)C2C1CC(OC1OC(=O)C3C(C)C(O)CC3C1C(=O)OC)C2C (stereo not drawn) [Compound 3, reticunin A] | > 100 |  | > 100 | 
COC(=O)C1COC(=O)C2C(C)C(OC3OC(=O)C4C(C)C(O)CC4C3C(=O)OC)CC12 (stereo not drawn) [Compound 4, reticunin B] | > 100 |  | > 100 | 
COC(=O)C1=CNC(=O)[C@@H]2[C@@H](C)[C@@H](O)C[C@H]12 [Compound 5, strychnovoline] | > 100 |  | > 100 | 
C[C@@H]1[C@H]2COC(=O)C[C@H]2C[C@@H]1O [Compound 7, isoboonein] | 86.3 ± 3.45 (≈ 507 µM) |  | > 100 | 
C/C=C1/C(=O)OCC[C@H]1CCO [Compound 8, floribundane B] | > 100 |  | > 100 | 
C[C@@H]1[C@H]2COC(=O)[C@@H](CO)[C@H]2C[C@@H]1O [Compound 9, alyxialactone] | > 100 |  | > 100 | 
COc1cc([C@H]2OC[C@H]3[C@@H]2CO[C@@H]3c2cc(OC)c(O)c(OC)c2)cc(OC)c1O [Compound 10, syringaresinol] | 9.18 ± 1.9 (≈ 21.9 µM) | 5 | > 100 | 
COc1cc([C@@H]2OC[C@@H]3[C@H]2CO[C@H]3c2cc(OC)c(O)c(OC)c2)ccc1O [Compound 12, (+)-medioresinol] | 76.2 ± 2.42 (≈ 196 µM) |  | > 100 | 
O=C(O)c1ccc(O)c(O)c1 [Compound 14, protocatechuic acid] | 72.9 ± 4.97 (≈ 473 µM) |  | > 100 | 
(+)-pinoresinol [Compound 11] |  |  |  | >100

The next lines start with results.

IC50 [2, 3] [µg/mL] | IC50 fold less than indomethacin (positive control) ([2]; NO inhibition) [fold] | Compound | CC50 at 24 h [1] [µg/mL] | IC50 (inhibition of nitric oxide production) [2, 3] [µg/mL]
> 100 |  | COC(=O)C(CO)C1CC(O)C(C)C1COC(=O)c1ccccc1 (stereo not drawn) [Compound 2, neonanin D] | > 100 | 
> 100 |  | COC(=O)C1=COC[C@@H]2[C@@H](C)[C@@H](O)C[C@H]12 [Compound 6, siphonostegiol] | > 100 | 
> 100 |  | COc1ccc(O)c(O)c1 [Compound 13, 4-methoxycatechol] | > 100 | 
95.2 ± 1.2 (≈ 528 µM) |  | O=C(O)/C=C/c1ccc(O)c(O)c1 [Compound 15, trans-caffeic acid] | > 100 | 
> 100 |  | COc1cc(C(=O)O)cc(OC)c1O [Compound 16, syringic acid] | > 100 | 
> 100 |  | COc1cc(C(=O)CCO)cc(OC)c1O [Compound 17, 3-hydroxy-1-(4-hydroxy 3,5-dimethoxyphenyl)-1-propanone] | > 100 | 
> 100 |  | COc1cc(/C=C/C(=O)O)ccc1O [Compound 18, ferulic acid] | > 100 | 
> 100 |  | COC(=O)c1ccc(O)c(O)c1 [Compound 19, protocatechuic acid methyl ester] | > 100 | 
> 100 |  | COc1cc(C(=O)C(O)CO)ccc1O (stereo not drawn) [Compound 20, C-veratroylglycol] | > 100 | 
46.7 ± 3.14 (≈ 131 µM) |  | COc1ccc2c(c1)c(CC(=O)O)c(C)n2C(=O)c1ccc(Cl)cc1 [Indomethacin, indomethacin, reference compound] | > 100 | 
